Values of other authors, collected in patent publication US11633350B2, “Hypotonic microbicidal formulations and methods of use” (priority 2014, dated 2023).

Columns and labels:
HIV = settings: PK/PD models

Structure (SMILES) | systemic (blood) TFV peak (Cmax) concentration (after a single oral TDF dose) [ng/mL] | time to protection (in vivo) [days] | time to achieve protective concentrations of TFV-DP in tissue (in vivo, po) | plasma concentration associated with 90% protection (EC90) (HIV) [µg/mL]
CC(C)OC(=O)OCOP(=O)(CO[C@H](C)Cn1cnc2c(N)ncnc21)OCOC(=O)OC(C)C.O=C(O)/C=C/C(=O)O [TDF, 2,4,6,8-Tetraoxa-5-phosphanonanedioic acid, 5-[[(1R)-2-(6-amino-9H-purin-9-yl)-1-methylethoxy]methyl]-, bis(1-methylethyl) ester, 5-oxide, (2E)-2-butenedioate (1:1)] | 350 | 3 | one week | –
C[C@H](Cn1cnc2c(N)ncnc21)OCP(=O)(O)O [tenofovir, (R)-9-(2-phosphonylmethoxypropyl)adenine] | – | – | – | 0.107
